From patent US20250302767A1, “TREATMENT OF CANCER AND AUTOIMMUNE DISORDERS USING NANO POLYMERS OF HISTONE DEACETYLASE INHIBITORS” (University of Virginia Patent Foundation, priority 2021, published 2025)
Where two headings read alike, the source gives them in different places.

Key:
[1] = tested on: acetylation of histone proteins H3 and H4 in HH cells; test: Acetylation of histone H3 and H4 (flow cytometry, Western blot); format: cell-based, human; details: increasing doses, 30 hours
Experimental: Flow Cytometry. Cells were harvested after 30 hours of treatment, washed twice with PBS, fixed with 4% paraformaldehyde solution and permeabilized with 70% methanol before incubating with the relevant antibodies: HDAC1 Polyclonal Antibody (Proteintech), Rabbit anti-Acetyl Histone H3 K9/K14, and Rabbit Anti-Acetyl Histone H4 (Millipore). After 30 minutes incubation at room temperature cells are washed twice with PBS and FITC conjugated secondary Goat anti-rabbit antibodies (Thermofisher) were added. Cells were incubated on ice for 30 minutes and then washed in PBS. After the second wash, cells were resuspended in PBS with 4% FBS and ready for signal acquisition on a flow cytometer. Apoptosis in cell lines was assessed by the presence of cleaved Poly (ADP-ribose) polymerase-1 (PARP) using a flourochrome conjugated anti-cleaved PARP antibody (BD Biosciences). After staining the cells were acquired using an Attune Flow Cytometer and the data analyzed using FloJo analysis software. The Mean Fluorescence intensity (MFI) was indicative of the level of expression of each marker.
Western Blots. […] Antibodies were detected with the corresponding horseradish peroxidase-linked secondary antibodies. […] Signal detection and imaging was captured and analyzed using a CHEMIDOC™ System (Bio-Rad) with signal quantification. […]

[2] = Single dose toxicity study (MTD); format: in vivo, mice; details: female, mouse, in vivo, BALB/c mice
Experimental: (§1) In vivo studies. For single dose toxicity study, five to seven-week old female BALB/c mice were chosen for the MTD study. Animals were randomly assigned to dose groups based on body weight. […] Mice were divided into two cohorts for Nano-romidepsin (NanoRomi) and free romidepsin. Each cohort was divided into sub-cohorts. Each sub cohort (n=5) received a single treatment of following doses: 1, 2, 3, 5, and 8 mg/kg body weight by intreaperitoneal (IP) and intravenous (IV) route of administration. NanoRomi was diluted under sterile conditions in phosphate buffered saline (PBS). Romidepsin was prepared in DMSO and then diluted with PBS under sterile condition. […] The mice were monitored for 7 days after the last treatment. For single dose and repeated dose toxicity study, we used two endpoints: weight loss and clinical score. Clinical signs were scored by observing activity, appearance (hair coat and eyes/nose), posture, and body condition with a maximum of 3 points going to each (0, normal; 1 slight deviation from normal; 2, moderate deviation from normal, 3, severe deviation from normal). Euthanasia criteria included weight loss either >20% weight loss or reached a clinical score >6.

BALB/c mice = test: Single dose toxicity study (MTD); format: in vivo
Experimental: as §1

[3] = Pharmacokinetic study, romidepsin in plasma; details: mouse, in vivo, 2.5 mg/kg
Experimental: Each treatment cohort was further divided into two sub-cohorts depending upon the route of administration (IP or IV). […] Mice were sacrificed (n=3 per time point) at 1, 3, 6, 18, 24, 48, and 72 hours after the treatment. Blood (˜1 mL) was collected via terminal cardiac puncture under CO2 anesthesia and collected in EDTA-coated K3EDTA tubes followed by centrifugation (2000×g for 15 min) to isolate plasma. Plasma was placed in cryopreservation vials and preserved by snap freezing using liquid nitrogen. Blood from three untreated mice was collected at the beginning of the treatment (T=0) and used as a control.
For efficacy study: 5- to 7-week-old female NOD.Cg-Prkdcscid Il2rgtm1Wjl/SzJ mice (The Jackson Laboratory). were injected with 3 million a fluorescent protein, Chili (dTomato-absorption max and emission max at 554 nm and 581 nm respectively)—and a bioluminescence generating protein, firefly luciferase (Luc) expressing H9 cells subcutaneously in the flank. In vivo BLI analysis was conducted on a cryogenically cooled Lago X (Spectral Instruments Imaging system). Mice were imaged twice a week starting 4 days after inoculation of cells. […] Baseline imaging data were recorded for all mice on day 1 (start of drug administration) and on each day of drug administration before the treatment. The numbers of animals, study design, and treatment of animals were reviewed, and approved by the Institutional Animal Care and Use Committee (IACUC) of the University of Virginia, Charlottesville, Virginia, United States of America.

[4] = tested on: H9-dtomato-luciferase tumor; test: Efficacy study, xenograft bioluminescence imaging; format: in vivo, NOD.Cg-Prkdcscid Il2rgtm1Wjl/SzJ mice (human H9 xenografts); details: 2 mg/kg IP on days 1, 4, 8, 11; after day 17 of engraftment
Source text: FIG. 15. Efficacy study using NanoRomidepsin PDLLA. […] In vivo, BLI images were acquired to determine the response after the romidepsin and NanoRomidepsin PDLLA treatment. All cohorts were imaged on days 7, 10, 14, and 17 days (arrows) after post-engraftment using Lago X Spectrum Imaging System before the administration of drugs. After acquisition of images, a mean BLI curve of human H9 xenografts was generated where the y axis represents total flux (photon/s) and x axis represents time (Days) function.

PTCL = details: cited from earlier work; for Outcomes: ORR / Outcomes: CR / Outcomes: DOR: patients with PTCL; for response, share of patients: R/R PTCL
[5] = single agent, pivotal trial cited per drug (romidepsin: trial (6))

## C/C=C1\NC(=O)[C@H]2CSSCC/C=C/[C@H](CC(=O)N[C@H](C(C)C)C(=O)N2)OC(=O)[C@H](C(C)C)NC1=O [Romidepsin, (1S,4S,7Z,10S,16E,21R)-7-Ethylidene-4,21-diisopropyl-2-oxa-12,13-dithia-5,8,20,23-tetrazabicyclo[8.7.6]tricos-16-ene-3,6,9,19,22-pentone]
[1]
  acetylation of H3 and H4 (flow cytometry): concentration dependent increase in the acetylation of both H3 and H4
[2]; intraperitoneal (IP)
  MTD: 5 mg/kg
[2]; intravenous (IV), highest dose tested 8 mg/kg
  MTD: > 8 mg/kg
BALB/c mice; after first 7 days of treatment
  clinical score: equivalent clinical score
BALB/c mice; intraperitoneal (IP)
  dose at which mice reached humane endpoints: 8 mg/kg
[3]; ip
  AUC(0-inf): 1930 ng·h/mL
  AUC(0-t): 1920 ng·h/mL
  Cmax: 120 ng/mL
  MRT inf: 12.8 h
  Tmax: 6 h
  Vd/F: 20 L/kg
  half-life: 9.83 h
[3]; iv
  AUC(0-inf): 108 ng·h/mL
  AUC(0-t): 99.3 ng·h/mL
  Cmax: 21.3 ng/mL
  MRT inf: 5.53 h
  Tmax: 1 h
  half-life: 5.22 h
[4]
  tumor response (BLI) compared to the control and ghost nanoparticle group: cytostatic effect
PTCL; single agent, pivotal trial cited per drug (romidepsin: trial (6) Coiffier et al., 2014)
  Outcomes: ORR: 25%
PTCL; [5]
  Outcomes: CR: 15%
  Outcomes: DOR: 28 months
PTCL; trial (7) Piekarz et al., 2011
  Outcomes: CR: 18%
  Outcomes: DOR: 8.9 months
  Outcomes: ORR: 38%
PTCL; single agent
  response, share of patients: 25%
PTCL; single agent, listed as romidepsin
  response, share of patients: about 25%
